# Measured values taken from patent US10975352B2, “Methods of enhancing cell survival of stem cells” (The Scripps Research Institute, priority 2008, dated 2021).
# Tests used:
# hESCs [1] = assay: ALP positive colony formation / low-density survival assay of dissociated hESCs on Matrigel; assay type: cell-based, human; conditions: for Activity (% ALP positive colony formation by hESCs): Ratio of ALP positive colonies vs. total initially seeded cells
# Procedure: Human ESC lines H1, HUES7 and HUES9 were cultured on irradiated MEF feeder cells in DMEM-F12 supplemented with 2 mM L-glutamine, lx nonessential amino acids, 20% serum replacement (Invitrogen) and 10 ng/ml basic Fibroblast growth factor (Invitrogen). Chemically-defined and feeder-free hESC culture was described previously (Yao, S. et al., Proc Natl Acad Sci USA 103 (18):6907-6912 (2006)). Briefly, hESCs were grown on Matrigel-coated tissue culture plates in N2B27-CDM (DMEM-F12 supplemented with 1×N2 supplements, lx B27 supplements, 2 mM L-glutamine, 0.11 mM 2-mercaptoethanol, lx nonessential amino acids, and 0.5 mg/ml BSA (fraction V)) and 20 ng/ml bFGF. Human ESCs were passaged every 5-6 days with 0.05% trypsin.
# For clonal survival assays, single hESCs were diluted to clonal density and plated onto 96-well Matrigel-coated plate. For low-density survival assays, 500 cells were plated onto 96-well Matrigel-coated plate. To visualize hESC colonies, cultures were fixed in 4% paraformaldehyde in PBS for 5 min, washed once in PBS, then stained for alkaline phosphatase activity as described in manufacturer's instructions. ALP positive colonies were counted on an inverted microscope.
# ALP detection kit and integrin antibodies were from Chemicon. AG825 (Erb2 inhibitor), AG1478 (EGFR inhibitor), PPP (IGFR1 inhibitor) were purchased from Calbiochem. Antibodies raised against the intracytoplasmic tail of E-cadherins (Transduction Laboratories, Lexington, Ky.) were used for immunoprecipitation. The antibody TS2/16 was from Pierce. Antibodies to the extracellular domain of E-cadherin molecule were from Zymed (Carlsbad). Antibodies against extracellular signal-regulated kinase/MAPK, EGFR1, ERB2, GADPH and phosphorylated form of AKT were from Cell Signaling. Mouse monoclonal anti-phosphotyrosine (4G-10 clone) was from Upstate Biotechnology. Ptn and Tzv were added to culture medium at 2 μM. […]
# β1 integrin = assay: Activated β1 integrin (HUTS-21 binding; flow cytometry, immunostaining); assay type: cell-based, human; conditions: PMA 10 nM; immunostaining of active β1 integrins
# Source text: To gain insights into the mechanism of β1 integrin regulation by Tzv and Ptn, we investigated whether the compounds' effect is due to changes of integrin expression. In contrast to E-cadherin, β1 integrin was not cleaved by trypsin. […] Thus, Tzv and Ptn are likely to affect cell adhesion by modulating integrin activity (FIG. 3 d,e). To examine the effects of compound treatment on the activity of β1 integrin, we used the monoclonal antibody HUTS-21, which specifically binds to the activated form of the 131 integrin (Luque, A. et al., J Biol Chem 271 (19):11067-11075 (1996)).
# To assess the expression of E-cadherin, activated integrin and SSEA4, dissociated cells (3×10^5) were washed with PBS and resuspended in PBS containing 2% goat serum. Cells were then incubated with the appropriate antibody for 1 h at 4° C., washed with the blocking solution, and labeled with FITC-conjugated secondary antibody for 30 min at 4° C. Cells were then washed and analyzed on a FACS Calibur flow cytometer.
# hESCs [2] = assay: Cell adhesion assay; assay type: cell-based, human
# Procedure: Cell adhesion assays were performed in 96-well microtiter plates coated with Matrigel. After trypsin, hESCs were resuspended in the chemically-defined media containing the desired compounds. Cells were then added to the microtiter wells and incubated for 3 h at 37° C. Unbound and loosely bound cells were removed by shaking and washing, and the remaining cells were then fixed immediately. The wells were washed 3 times with 200 μl of H2O, and attached cells were stained with Crystal Violet (Sigma). The absorbance of each well at 570 nm was then measured. For experiments with blocking antibodies, cells were pre-incubated with antibodies on ice for 30 min, and adhesion assays were performed in the presence of antibodies. Each sample was assayed independently for three times.
# [3] = system: epithelial to mesenchymal transition/EMT; assay: Induction of MET / inhibition of EMT; assay type: cell-based
# hESCs [4] = assay: Cell death analysis of dissociated hESCs in suspension culture; assay type: cell-based, human
# Source text: hESCs are known to be difficult in forming embryoid bodies (EBs) in suspension culture after single cell dissociation due to extensive cell death. Thus, we also tested whether Tzv or Ptn could promote survival of dissociated hESCs in suspension. […] Because cell aggregation is most often mediated through cell-cell adhesions and E-cadherin is the primary cell-cell adhesion molecule, as well as highly expressed in hESCs (Eastham, A. M. et al., Cancer Res 67 (23): 11254-11262 (2007)), we tested the effect of a specific E-cadherin blocking antibody on multicellular aggregate formation.
# The hESCs under different treatments were dissociated by trypsin and fixed by 4% paraformaldehyde. And the staining was carried out according to the manufacturer's instructions (MBL Laboratories, Watertown, Mass.). After staining, samples were analysed by flow cytometry using a FACS Calibur flow cytometer (BD).
# hESCs [5] = assay: Karyotyping (G-banding) of long-term expanded hESCs; assay type: cell-based, human; conditions: more than 20 generations; chemically-defined medium
# Procedure: Teratoma formation experiments were performed by injecting 3-5 million hESCs (maintained in the presence of compounds Tvz or Ptn) under the kidney capsule of nude mice. After 4-5 weeks, all mice developed teratomas, which were removed and then immunohistologically analyzed by The Scripps Research Institute Research Histology Service and Animal Resources. Compounds treated cells were karyotyped by standard G-banding at the Children's Hospital Oakland, Cytogenetics Laboratory. No chromosomal abnormality was found in the 10 randomly picked nuclei.
# [6] = system: growth factor receptors, AKT and ERK; assay: Western blot of phosphorylation status in hESCs; assay type: cell-based, human
# Source text: Interplay between physical/structural environment and growth factor plays a very important role in cell fate regulation (Comoglio, P. M., Boccaccio, C., & Trusolino, L., Curr Opin Cell Biol 15 (5):565-571 (2003)). To examine whether growth factors are involved in integrin-mediated hESC survival, we treated dissociated hESCs with Tzv or Ptn together with individual highly specific growth factor receptor inhibitors. […] Similarly inhibition of FGFR, IGFR, EGFR1 or Erb2 also greatly abolished Tzv-induced hESC survival in suspension culture.
# Phosphatidylinositol-3-kinase (PI-3K) signaling and MAPK/ERK are major regulators for hESC self-renewal (Armstrong, L. et al., Hum Mol Genet 15 (11): 1894-1913 (2006); Paling, N. R. et al., J Biol Chem 279 (46):48063-48070 (2004); Pyle, A. D., Lock, L. F., & Donovan, P. J., Nat Biotechnol 24 (3):344-350 (2006); Li, J. et al., Differentiation 75 (4):299-307 (2007)). Phosphorylation of ERK and AKT, a downstream effector of PI-3K, were increased upon treatment of dissociated hESCs with Ptn, and this increase was abolished by integrin blocking antibody (FIG. 4e,f). Moreover, activation of AKT and ERK by Ptn was blocked by inhibitors of FGFR, IGFR, EGFR or Erb2 (FIG. 4g and data not shown).
# stem cells = assay: Survival and anti-differentiation of stem cells ex vivo; assay type: cell-based; conditions: human and mouse embryonic, neural, skin, mesenchymal, hematopoietic, stromal and epithelial stem cells; contact immediately after isolation
# Source text: In some embodiments, the invention provides methods of promoting survival and anti-differentiation in stem cells ex-vivo.
SMILES,Activity (% ALP positive colony formation by hESCs) (hESCs [1]) [%],other results
O=C(NCc1ccccc1)c1csc(Nc2ccccc2)n1,4.5,
O=C(NCc1ccccc1)c1csc(Nc2ccccn2)n1,5.2,
O=C(NCc1ccccc1)c1csc(Nc2ccncc2)n1,20.3,
COc1ccc(CNC(=O)c2csc(Nc3ccncn3)n2)cc1,5,
CC(C)CCNS(=O)(=O)c1ccc(Nc2nccc(N3CCCc4cc(O)ccc43)n2)cc1,23.5,
O=S(=O)(NC1CC1)c1ccc(Nc2nccc(N3CCCc4cc(O)ccc43)n2)cc1,8,
O=C(NCC1CC1)c1ccc(Nc2nccc(N3CCCc4cc(O)ccc43)n2)cc1,2.9,
CNS(=O)(=O)c1ccc(Nc2nccc(N3CCCc4cc(O)ccc43)n2)cc1,5.7,
CC(C)CCNS(=O)(=O)c1ccc(Nc2nccc(N3CCc4ccccc43)n2)cc1,3.1,
O=S(=O)(NC1CC1)c1ccc(Nc2nccc(N3CCc4ccccc43)n2)cc1,6.2,
O=S(=O)(NCC1CC1)c1ccc(Nc2nccc(N3CCc4ccccc43)n2)cc1,6.1,
O=S(=O)(NCC1CC1)c1ccc(Nc2nccc(N3Cc4ccccc4C3)n2)cc1,3.5,
CNS(=O)(=O)c1ccc(Nc2nccc(N3CCc4ccccc4C3)n2)cc1,3.6,
CC(C)CCNS(=O)(=O)c1ccc(Nc2nccc(N3CCc4ccccc4C3)n2)cc1,3.2,
CNS(=O)(=O)c1ccc(Nc2nccc(N3CCCc4ccccc43)n2)cc1,3,
CC(C)CCNS(=O)(=O)c1ccc(Nc2nccc(N3CCCc4ccccc43)n2)cc1,3.4,
O=S(=O)(NC1CC1)c1ccc(Nc2nccc(N3CCCc4ccccc43)n2)cc1,3.1,
O=S(=O)(NCC1CC1)c1ccc(Nc2nccc(N3CCCc4ccccc43)n2)cc1,5.2,
CNS(=O)(=O)c1ccc(Nc2nccc(N3CCCc4cc(OC)ccc43)n2)cc1,3.1,
COc1ccc2c(c1)CCCN2c1ccnc(Nc2ccc(S(=O)(=O)NCCC(C)C)cc2)n1,3.3,
O=S(=O)(NCC1CC1)c1ccc(Nc2nccc(Nc3ccccc3)n2)cc1,3.3,
CC(C)CCNS(=O)(=O)c1cccc(Nc2nccc(N3CCCc4cc(O)ccc43)n2)c1,3.1,
"CCCCCCCCCCCCCC(=O)O[C@@H]1[C@@H](C)[C@@]2(O)[C@@H](C=C(CO)C[C@]3(O)C(=O)C(C)=C[C@@H]23)[C@@H]2C(C)(C)[C@]12OC(C)=O [PMA, phorbol 12-myristate 13-acetate, reference compound]",,integrin activation (β1 integrin): caused integrin activation; cell adhesion and colony formation of dissociated hESCs (hESCs [2]): substantial increase in cell adhesion and colony formation
"O=S(=O)(NCC1CC1)c1ccc(Nc2nccc(N3CCCc4cc(O)ccc43)n2)cc1 [Ptn, N-(cyclopropylmethyl)-4-(4-(6-hydroxy-3,4-dihydroquinolin-1(2H)-yl)pyrimidin-2-ylamino)benzenesulfonamide]",,"MET induction and EMT inhibition [3]: can induce MET (the reverse of EMT) and inhibit EMT; survival of dissociated hESCs in suspension culture (hESCs [4]): had no effect; adhesion of dissociated hESCs to Matrigel or laminin (hESCs [2]): dramatically increased adhesion; adhesion of hESCs to gelatin or poly-lysine (hESCs [2]): not affected; karyotype of hESCs serially passaged in compound-containing medium (hESCs [5]): normal karyotype; survival of dissociated hESCs in adherent culture (hESCs [1]; adherent culture (e.g. Matrigel-coated plate)): promoted survival; phosphorylation of ERK and AKT ([6]; dissociated hESCs): increased; phosphorylation of growth factor receptor ([6]; hESCs treated for 2 h, DMSO control): significantly increased the phosphorylation; survival and anti-differentiation of stem cells (stem cells): effective in promoting survival and anti-differentiation"
"CN(C)CCCn1cc(C2=C(c3c[nH]c4ccccc34)C(=O)NC2=O)c2ccccc21 [bisindolylmaleimide I, reference compound]",,effect on increased cell adhesion induced by Ptn (hESCs [2]; PKC inhibitor in combination with Ptn): could antagonize the increased cell adhesion; effect on cell adhesion induced by Tzv (hESCs [2]; PKC inhibitor in combination with Tzv): had no effect
O=C(NCc1ccccc1)c1csc(Nc2ccncn2)n1 [drawing 17],24.1,
O=S(=O)(NCC1CC1)c1ccc(Nc2nccc(N3CCCc4cc(O)ccc43)n2)cc1 [drawing 23],23.2,
